According to publication PMC5529423, “ATP-dependent modulation of MgtE in Mg^2+ homeostasis” (Nature Communications, 2017):

Columns and labels:
[1] = target: T1, TtMgtE (full-length MgtE) (Thermus thermophilus, UniProt Q5SMG8); assay: isothermal titration calorimetry; type: binding
T1 construct: full-length, expressed in E. coli C41 (DE3), Ni-NTA and gel filtration in detergent; homodimer; tag not described
T1 sequence (Q5SMG8 1-450): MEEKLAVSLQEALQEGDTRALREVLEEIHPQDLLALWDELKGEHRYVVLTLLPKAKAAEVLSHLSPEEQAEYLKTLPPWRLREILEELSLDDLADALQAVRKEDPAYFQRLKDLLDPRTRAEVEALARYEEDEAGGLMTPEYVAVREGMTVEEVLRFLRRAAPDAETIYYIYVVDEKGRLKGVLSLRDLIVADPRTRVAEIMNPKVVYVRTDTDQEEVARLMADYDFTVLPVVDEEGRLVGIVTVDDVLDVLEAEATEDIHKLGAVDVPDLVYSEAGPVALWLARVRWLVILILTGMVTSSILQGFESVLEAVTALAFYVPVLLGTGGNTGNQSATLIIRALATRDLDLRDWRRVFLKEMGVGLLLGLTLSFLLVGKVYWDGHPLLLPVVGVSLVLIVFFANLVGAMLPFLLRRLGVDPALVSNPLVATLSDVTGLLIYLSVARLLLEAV

[2] = target: T2, TtMgtE (full-length MgtE) (Thermus thermophilus, UniProt Q5SMG8, R187E); assay: isothermal titration calorimetry; type: binding; details: 20 °C, no added Mg2+, NTM detergent, ligand solution pH 6.5; CBS domain site
T2 construct: full-length, expressed in E. coli C41 (DE3), Ni-NTA and gel filtration in detergent; homodimer; tag not described

[3] = target: the molecule itself; assay: crystal structure; cytosolic domain (1-275) with ATP; vapor diffusion over 20-22% PEG 400, 0.2 M MgCl2, 0.1 M HEPES pH 7.4; 3.0 Å
[4] = target: the molecule itself; assay: crystal structure; full-length MgtE with ATP; vapor diffusion over 9% PEG 4000, 0.2 M MgCl2, 0.05 M MES pH 6.5; 3.6 Å

T2 sequence (Q5SMG8 whole entry R187E, the tested form may be a part): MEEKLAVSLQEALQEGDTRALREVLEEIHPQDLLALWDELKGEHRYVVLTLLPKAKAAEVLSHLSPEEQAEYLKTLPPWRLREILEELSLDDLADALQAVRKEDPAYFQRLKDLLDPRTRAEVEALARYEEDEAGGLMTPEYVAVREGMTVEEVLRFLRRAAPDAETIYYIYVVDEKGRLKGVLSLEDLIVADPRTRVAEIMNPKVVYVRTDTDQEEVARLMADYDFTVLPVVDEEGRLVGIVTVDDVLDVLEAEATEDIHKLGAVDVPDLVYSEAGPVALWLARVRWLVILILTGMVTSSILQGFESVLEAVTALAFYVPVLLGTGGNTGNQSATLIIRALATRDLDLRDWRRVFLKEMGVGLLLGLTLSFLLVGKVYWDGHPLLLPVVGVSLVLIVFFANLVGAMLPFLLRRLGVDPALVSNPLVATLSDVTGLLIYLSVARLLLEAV

For `Nc1ncnc2c1ncn2[C@@H]1O[C@H](COP(=O)(O)OP(=O)(O)OP(=O)(O)O)[C@@H](O)[C@H]1O` [ATP], the Kd [1] was 415 µM and the isothermal titration calorimetry [2] was “The injection of ATP into the R187E mutant solution still showed the weaker binding to ATP”.

With `Nc1ncnc2c1ncn2[C@@H]1O[C@H](COP(=O)(O)OP(=O)(O)O)[C@@H](O)[C@H]1O` [ADP] the Kd [1] was 763 µM.

B1: cytosolic domain (1-275) of MgtE (domain or fragment, Thermus thermophilus, UniProt Q5SMG8 1-275, looked up)
chain: MEEKLAVSLQEALQEGDTRALREVLEEIHPQDLLALWDELKGEHRYVVLTLLPKAKAAEVLSHLSPEEQAEYLKTLPPWRLREILEELSLDDLADALQAVRKEDPAYFQRLKDLLDPRTRAEVEALARYEEDEAGGLMTPEYVAVREGMTVEEVLRFLRRAAPDAETIYYIYVVDEKGRLKGVLSLRDLIVADPRTRVAEIMNPKVVYVRTDTDQEEVARLMADYDFTVLPVVDEEGRLVGIVTVDDVLDVLEAEATEDIHKLGAVDVPDLVYSE
notes: MgtE Mg2+ channel of Thermus thermophilus, cytosolic domain (N domain and tandem CBS domains), residues 1-275; crystallised with ATP and Mg2+; also called MgtE cytosolic domain; source: E. coli C41 (DE3), purified
B1: binds [3].

B2: full-length Thermus thermophilus MgtE (natural protein, UniProt Q5SMG8 1-450, looked up)
chain: T1 sequence (Q5SMG8 1-450)
notes: MgtE Mg2+ channel of Thermus thermophilus, full length; crystallised with ATP and Mg2+; That MgtE is a homodimer is said in the introduction, of the earlier full-length structure; also called TtMgtE; wild type MgtE; source: E. coli C41 (DE3), solubilized with DDM, purified (Ni-NTA, Superdex 200 SEC)
B2: binds [4].
